Paper PMC6375636, “Monotherapy with a low-dose lipopeptide HIV fusion inhibitor maintains long-term viral suppression in rhesus macaques” (PLoS Pathogens, 2019)
Peptide text beside a SMILES is read from it. * marks the point of attachment. Docosanoyl = CCCCCCCCCCCCCCCCCCCCCC(=O)*; Arachidoyl = CCCCCCCCCCCCCCCCCCCC(=O)*; Stearoyl = CCCCCCCCCCCCCCCCCC(=O)*; X1 = CCCCCCCCCCCCCCCCCCCCCCCC(=O)*; Lauroyl = CCCCCCCCCCCC(=O)*; Octanoyl = CCCCCCCC(=O)*

Legend:
[1] = system: HIV-1NL4-3(D36G) pseudovirus; type: cell-based; conditions: Fig 1; NL4-3(D36G) pseudovirus; mean ± SD of three assays in triplicate; read-out: Anti-HIV activity (IC50, pM) NL4-3 entry
Experimental: The inhibitory activities of inhibitors against HIV-1 pseudoviruses and replication-competent isolates were measured as described previously. Briefly, HIV-1 pseudoviruses were generated via the cotransfection of HEK293T cells with an Env-expressing plasmid and a backbone plasmid that encodes Env-defective, luciferase-expressing HIV-1 genome (pSG3Δenv). Viral stocks of replication-competent HIV-1 isolates were generated by transfecting viral molecular clones into HEK293T cells. […] Inhibitors were prepared in 3-fold dilutions, mixed with 100 TCID50 of a virus, and then incubated for 1 h at room temperature. […] Luciferase activity was measured as described above.

HIV-1HXB2 Env = molecular target: T1, HIV-1HXB2 Env (Human immunodeficiency virus type 1 group M subtype B, UniProt P04578); test: HIV-1HXB2 Env-mediated cell-cell fusion (HL2/3 effector, TZM-bl target, luciferase reporter); type: cell-based
T1 construct: HL2/3 cells, which stably express high levels of Env, Gag, Tat, Rev, and Nef proteins of the integrated HIV-1 molecular clone HXB2/3gpt; host or cells: HL2/3 cells (effector), cocultured with TZM-bl target cells
Experimental: The inhibitory activities of inhibitors on HIV-1HXB2 Env-mediated cell-cell fusion were determined by a reporter gene assay based on the activation of an HIV LTR-driven luciferase cassette in TZM-bl cells (target) by HIV-1 tat from HL2/3 cells (effector). Briefly, 1 x 10^4/well of TZM-bl cells were plated in 96-well plates and incubated at 37°C overnight. Then, 3 x 10^4/well of HL2/3 cells were cocultured with target cells for 6 h at 37°C in the presence or absence of an inhibitor at graded concentrations. Luciferase activity was measured using luciferase assay reagents and a Luminescence Counter (Promega, Madison, Wisconsin, USA).

HIV-1JRCSF = type: cell-based; conditions: Fig 1; replication-competent virus; mean ± SD of three assays in triplicate; read-out: Anti-HIV activity (IC50, pM) JRCSF infection
Experimental: The inhibitory activities of inhibitors against HIV-1 pseudoviruses and replication-competent isolates were measured as described previously. Briefly, HIV-1 pseudoviruses were generated via the cotransfection of HEK293T cells with an Env-expressing plasmid and a backbone plasmid that encodes Env-defective, luciferase-expressing HIV-1 genome (pSG3Δenv). Viral stocks of replication-competent HIV-1 isolates were generated by transfecting viral molecular clones into HEK293T cells. Culture supernatants were harvested at 48 h posttransfection, and 50% tissue culture infectious doses (TCID50) in TZM-bl cells were determined. Inhibitors were prepared in 3-fold dilutions, mixed with 100 TCID50 of a virus, and then incubated for 1 h at room temperature. The mixture was added to TZM-bl cells (10^4/well), and the cells were incubated for additional 48 h at 37°C. Luciferase activity was measured as described above.

[2] = lipopeptide alone, 10 μM in PBS, representative of 2 assays; for Helix content (%): [θ]222 / -33,000
[3] = molecular target: T2, gp41 NHR-derived target mimic peptide N39 (Human immunodeficiency virus type 1 group M subtype B, UniProt P04578); test: CD spectroscopy of lipopeptides in complex with target mimic peptide N39; type: binding, HIV-1; design: [θ]222: unit not given here; conditions: complex with N39, each peptide 10 μM in PBS; representative of 2 assays
T2 construct: the gp41 NHR-derived target mimic peptide N39
Text: Spectra were corrected by subtracting a solvent blank.

T1 sequence (P04578 512-856): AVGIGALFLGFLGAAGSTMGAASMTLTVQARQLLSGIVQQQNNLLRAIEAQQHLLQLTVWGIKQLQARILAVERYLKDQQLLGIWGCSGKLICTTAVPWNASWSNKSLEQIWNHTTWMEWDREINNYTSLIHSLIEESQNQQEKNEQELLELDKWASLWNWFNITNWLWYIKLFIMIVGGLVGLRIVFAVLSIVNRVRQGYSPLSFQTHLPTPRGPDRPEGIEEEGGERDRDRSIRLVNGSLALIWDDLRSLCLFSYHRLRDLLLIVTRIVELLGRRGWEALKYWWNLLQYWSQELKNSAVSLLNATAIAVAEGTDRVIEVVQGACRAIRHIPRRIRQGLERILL
T2 sequence (P04578 528-566): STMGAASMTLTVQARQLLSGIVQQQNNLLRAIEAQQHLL

Molecule	IC50 [1] [pM]	IC50 (HIV-1HXB2 Env) [nM]	IC50 (HIV-1JRCSF) [pM]	Helix content (%) [2] [%]	Tm (°C) ([2]; ellipticity at 222 nm, 20-98°C, 2°C/min)	Helix content (%) [3] [%]	[θ]222 [3]
CCCCCCCCCCCCCCCCCCCCCCCC(=O)NCCCC[C@H](NC(=O)[C@H](CCC(=O)O)NC(=O)[C@H](CC(C)C)NC(=O)[C@H](CCCCN)NC(=O)[C@H](CCCCN)NC(=O)[C@H](CC(C)C)NC(=O)[C@H](CCC(=O)O)NC(=O)[C@H](CCC(=O)O)NC(=O)[C@H](CCC(=O)O)NC(=O)[C@H](CC(N)=O)NC(=O)[C@H](CCCCN)NC(=O)[C@H](CCCCN)NC(=O)[C@H](CCC(N)=O)NC(=O)[C@H](CCC(N)=O)NC(=O)[C@H](CCC(=O)O)NC(=O)[C@H](CCC(=O)O)NC(=O)[C@H](C)NC(=O)[C@H](CCCCN)NC(=O)[C@H](CCCCN)NC(=O)[C@H](CC(C)C)NC(=O)[C@H](CC(C)C)NC(=O)[C@H](CCC(=O)O)NC(=O)[C@H](CCC(=O)O)NC(=O)[C@@H](NC(=O)[C@H](CCCCN)NC(=O)[C@H](CCC(N)=O)NC(=O)[C@H](CCC(=O)O)NC(=O)[C@H](Cc1c[nH]c2ccccc12)NC(C)=O)[C@@H](C)CC)C(N)=O [LP-77] (Ac-WEQKIEELLKKAEEQQKKNEEELKKLEK(X1)-NH2)	7.98 ± 0.97	0.161 ± 0.00664	12 ± 1.34				
CCCCCCCCCCCCCCCCCCCCCC(=O)NCCCC[C@H](NC(=O)[C@H](CCC(=O)O)NC(=O)[C@H](CC(C)C)NC(=O)[C@H](CCCCN)NC(=O)[C@H](CCCCN)NC(=O)[C@H](CC(C)C)NC(=O)[C@H](CCC(=O)O)NC(=O)[C@H](CCC(=O)O)NC(=O)[C@H](CCC(=O)O)NC(=O)[C@H](CC(N)=O)NC(=O)[C@H](CCCCN)NC(=O)[C@H](CCCCN)NC(=O)[C@H](CCC(N)=O)NC(=O)[C@H](CCC(N)=O)NC(=O)[C@H](CCC(=O)O)NC(=O)[C@H](CCC(=O)O)NC(=O)[C@H](C)NC(=O)[C@H](CCCCN)NC(=O)[C@H](CCCCN)NC(=O)[C@H](CC(C)C)NC(=O)[C@H](CC(C)C)NC(=O)[C@H](CCC(=O)O)NC(=O)[C@H](CCC(=O)O)NC(=O)[C@@H](NC(=O)[C@H](CCCCN)NC(=O)[C@H](CCC(N)=O)NC(=O)[C@H](CCC(=O)O)NC(=O)[C@H](Cc1c[nH]c2ccccc12)NC(C)=O)[C@@H](C)CC)C(N)=O [LP-78] (Ac-WEQKIEELLKKAEEQQKKNEEELKKLEK(Docosanoyl)-NH2)	3.73 ± 0.45	0.0544 ± 0.00709	7.16 ± 2.01				
CCCCCCCCCCCCCCCCCCCC(=O)NCCCC[C@H](NC(=O)[C@H](CCC(=O)O)NC(=O)[C@H](CC(C)C)NC(=O)[C@H](CCCCN)NC(=O)[C@H](CCCCN)NC(=O)[C@H](CC(C)C)NC(=O)[C@H](CCC(=O)O)NC(=O)[C@H](CCC(=O)O)NC(=O)[C@H](CCC(=O)O)NC(=O)[C@H](CC(N)=O)NC(=O)[C@H](CCCCN)NC(=O)[C@H](CCCCN)NC(=O)[C@H](CCC(N)=O)NC(=O)[C@H](CCC(N)=O)NC(=O)[C@H](CCC(=O)O)NC(=O)[C@H](CCC(=O)O)NC(=O)[C@H](C)NC(=O)[C@H](CCCCN)NC(=O)[C@H](CCCCN)NC(=O)[C@H](CC(C)C)NC(=O)[C@H](CC(C)C)NC(=O)[C@H](CCC(=O)O)NC(=O)[C@H](CCC(=O)O)NC(=O)[C@@H](NC(=O)[C@H](CCCCN)NC(=O)[C@H](CCC(N)=O)NC(=O)[C@H](CCC(=O)O)NC(=O)[C@H](Cc1c[nH]c2ccccc12)NC(C)=O)[C@@H](C)CC)C(N)=O [LP-79] (Ac-WEQKIEELLKKAEEQQKKNEEELKKLEK(Arachidoyl)-NH2)	4.39 ± 0.67	0.0387 ± 0.00447	5.7 ± 0.86	48	56	55	-18030
CCCCCCCCCCCC(=O)NCCCC[C@H](NC(=O)[C@H](CCC(=O)O)NC(=O)[C@H](CC(C)C)NC(=O)[C@H](CCCCN)NC(=O)[C@H](CCCCN)NC(=O)[C@H](CC(C)C)NC(=O)[C@H](CCC(=O)O)NC(=O)[C@H](CCC(=O)O)NC(=O)[C@H](CCC(=O)O)NC(=O)[C@H](CC(N)=O)NC(=O)[C@H](CCCCN)NC(=O)[C@H](CCCCN)NC(=O)[C@H](CCC(N)=O)NC(=O)[C@H](CCC(N)=O)NC(=O)[C@H](CCC(=O)O)NC(=O)[C@H](CCC(=O)O)NC(=O)[C@H](C)NC(=O)[C@H](CCCCN)NC(=O)[C@H](CCCCN)NC(=O)[C@H](CC(C)C)NC(=O)[C@H](CC(C)C)NC(=O)[C@H](CCC(=O)O)NC(=O)[C@H](CCC(=O)O)NC(=O)[C@@H](NC(=O)[C@H](CCCCN)NC(=O)[C@H](CCC(N)=O)NC(=O)[C@H](CCC(=O)O)NC(=O)[C@H](Cc1c[nH]c2ccccc12)NC(C)=O)[C@@H](C)CC)C(N)=O [LP-81] (Ac-WEQKIEELLKKAEEQQKKNEEELKKLEK(Lauroyl)-NH2)	111 ± 68.1	0.353 ± 0.0763	183 ± 45.4	37		49	-16313
CCCCCCCC(=O)NCCCC[C@H](NC(=O)[C@H](CCC(=O)O)NC(=O)[C@H](CC(C)C)NC(=O)[C@H](CCCCN)NC(=O)[C@H](CCCCN)NC(=O)[C@H](CC(C)C)NC(=O)[C@H](CCC(=O)O)NC(=O)[C@H](CCC(=O)O)NC(=O)[C@H](CCC(=O)O)NC(=O)[C@H](CC(N)=O)NC(=O)[C@H](CCCCN)NC(=O)[C@H](CCCCN)NC(=O)[C@H](CCC(N)=O)NC(=O)[C@H](CCC(N)=O)NC(=O)[C@H](CCC(=O)O)NC(=O)[C@H](CCC(=O)O)NC(=O)[C@H](C)NC(=O)[C@H](CCCCN)NC(=O)[C@H](CCCCN)NC(=O)[C@H](CC(C)C)NC(=O)[C@H](CC(C)C)NC(=O)[C@H](CCC(=O)O)NC(=O)[C@H](CCC(=O)O)NC(=O)[C@@H](NC(=O)[C@H](CCCCN)NC(=O)[C@H](CCC(N)=O)NC(=O)[C@H](CCC(=O)O)NC(=O)[C@H](Cc1c[nH]c2ccccc12)NC(C)=O)[C@@H](C)CC)C(N)=O [LP-82] (Ac-WEQKIEELLKKAEEQQKKNEEELKKLEK(Octanoyl)-NH2)	1010 ± 344	3.21 ± 1.43	3710 ± 1080	22		39	-12910
CCCCCCCCCCCCCCCCCC(=O)NCCCC[C@H](NC(=O)[C@H](CCC(=O)O)NC(=O)[C@H](CC(C)C)NC(=O)[C@H](CCCCN)NC(=O)[C@H](CCCCN)NC(=O)[C@H](CC(C)C)NC(=O)[C@H](CCC(=O)O)NC(=O)[C@H](CCC(=O)O)NC(=O)[C@H](CCC(=O)O)NC(=O)[C@H](CC(N)=O)NC(=O)[C@H](CCCCN)NC(=O)[C@H](CCCCN)NC(=O)[C@H](CCC(N)=O)NC(=O)[C@H](CCC(N)=O)NC(=O)[C@H](CCC(=O)O)NC(=O)[C@H](CCC(=O)O)NC(=O)[C@H](C)NC(=O)[C@H](CCCCN)NC(=O)[C@H](CCCCN)NC(=O)[C@H](CC(C)C)NC(=O)[C@H](CC(C)C)NC(=O)[C@H](CCC(=O)O)NC(=O)[C@H](CCC(=O)O)NC(=O)[C@@H](NC(=O)[C@H](CCCCN)NC(=O)[C@H](CCC(N)=O)NC(=O)[C@H](CCC(=O)O)NC(C)=O)[C@@H](C)CC)C(N)=O [LP-88] (Ac-EQKIEELLKKAEEQQKKNEEELKKLEK(Stearoyl)-NH2)	4.26 ± 1.3	0.0144 ± 0.00137	4.29 ± 0.58	34		55	-18242
CCCCCCCCCCCCCCCCCC(=O)NCCCC[C@H](NC(=O)[C@H](CCC(=O)O)NC(=O)[C@H](CC(C)C)NC(=O)[C@H](CCCCN)NC(=O)[C@H](CCCCN)NC(=O)[C@H](CC(C)C)NC(=O)[C@H](CCC(=O)O)NC(=O)[C@H](CCC(=O)O)NC(=O)[C@H](CCC(=O)O)NC(=O)[C@H](CC(N)=O)NC(=O)[C@H](CCCCN)NC(=O)[C@H](CCCCN)NC(=O)[C@H](CCC(N)=O)NC(=O)[C@H](CCC(N)=O)NC(=O)[C@H](CCC(=O)O)NC(=O)[C@H](CCC(=O)O)NC(=O)[C@H](C)NC(=O)[C@H](CCCCN)NC(=O)[C@H](CCCCN)NC(=O)[C@H](CC(C)C)NC(=O)[C@H](CC(C)C)NC(=O)[C@H](CCC(=O)O)NC(=O)[C@H](CCC(=O)O)NC(=O)[C@@H](NC(=O)[C@H](CCCCN)NC(C)=O)[C@@H](C)CC)C(N)=O [LP-89] (Ac-KIEELLKKAEEQQKKNEEELKKLEK(Stearoyl)-NH2)	10.8 ± 3.14	0.0733 ± 0.021	12.4 ± 1.22	43		51	-16781
Ac-WEQKIEELLKKAEEQQKKNEEELKKLEK-NH2 [Lipopeptide P-52]	2620 ± 235	1.34 ± 0.119	2170 ± 146				
